Where two headings read alike, the source gives them in different places.
Assays:
[1] = system: TEL-KIT-BaF3 (stably expressing KIT wild-type kinase); assay: Proliferation of TEL-KIT-BaF3 cells (CCK-8); type: cell-based, mouse; conditions: Mus musculus, read-out: GI50 TEL-KIT-BaF3
Excerpt: Compounds as provided herein were further evaluated for their inhibitory effects on proliferation of cancer cells by testing their effects on growth of cancer cells. In this example the following cells were used: primary mouse B cells BaF3 (purchased from ATCC), GIST-T1 cells of the human gastrointestinal stromal tumor cell line (expressing wild-type KIT gene) (purchased from Cosmo Bio Co., Ltd. (Japan)). The present lab further constructed and used the following: mouse Tel-Kit-BaF3 (stably expressing KIT wild-type kinase), mouse Tel-Kit/T670I-BaF3 (stably expressing KIT T670I mutant kinase), mouse Tel-Kit/V559A-BaF3 (stably expressing KIT V559A mutant kinase), mouse Tel-Kit/V559D-BaF3 (stably expressing KIT V559D mutant kinase), mouse Tel-Kit/V559G-BaF3 (stably expressing KIT V559G mutant kinase), mouse Tel-Kit/V560D-BaF3 (stably expressing KIT V560D mutant kinase), mouse Tel-Kit/L576P-BaF3 (stably expressing KIT L576P mutant kinase), mouse Tel-Kit/V654A-BaF3 (stably expressing KIT V654A mutant kinase), mouse Tel-Kit/V654A/V559D-BaF3 (stably expressing KIT V654A V559D mutant kinase), mouse Tel-Kit/T670E-BaF3 (stably expressing KIT T670E mutant kinase), mouse Tel-Kit/T670I/V559D-BaF3 (stably expressing KIT T670I V559D mutant kinase), mouse Tel-Kit/S709F-BaF3 (stably expressing KIT S709F mutant kinase), mouse Tel-Kit/D816E-BaF3 (stably expressing KIT D816E mutant kinase), mouse Tel-Kit/D816H-BaF3 (stably expressing KIT D816H mutant kinase), mouse Tel-Kit/D820E-BaF3 (stably expressing KIT D820E mutant kinase), mouse Tel-Kit/D820G-BaF3 (stably expressing KIT D820G mutant kinase), mouse Tel-Kit/D820Y-BaF3 (stably expressing KIT D820Y mutant kinase), mouse Tel-Kit/N822K-BaF3 (stably expressing KIT N822K mutant kinase), mouse Tel-Kit/Y823D-BaF3 (stably expressing KIT Y823D mutant kinase), mouse Tel-Kit/A829P-BaF3 (stably expressing KIT A829P mutant kinase), GIST-T1-T670I cells of the human gastrointestinal stromal tumor cell line (expressing KIT-T670I mutant gene). The above cell lines were constructed by: amplifying respectively the sequences of human KIT and various mutant kinase regions of KIT via PCR, inserting the fragments respectively into MSCV-Puro vectors having a N-terminal TEL fragment and/or a NPM fragment and/or a TPR fragment (purchased from Clontech), transfecting mouse BaF3 cells with the vectors by means of retrovirus to obtain stably transfected cells, removing the growth factor IL-3, and thereby eventually obtaining cell lines that depend on the transferred protein KIT or various mutants of KIT. The GIST-T1-T670I (expressing C-KIT-T670I mutant gene) cell line was constructed by our laboratory as follows: designing sgRNA that targeted a region around T670 of the KIT gene with CRISPR Design Tool (website: crispr.mit.edu, Zhang Feng Lab), cloning it into pSpCas9(BB)-2A-Puro vector; co-transfecting cells with the resultant vector and a single-stranded oligonucleotide having T670I site mutation that is near to T670, subjecting the resultant to antibiotics screening, followed by dilution, and monocellular culture in a 96-well plate; validating the site T670 of the cells by sequence detection via Sanger sequencing.
The cells after incubation were detected using CCK-8 (purchased from MedChem Express, Shanghai, China) cell viability assay kit (CCK-8 may be reduced by dehydrogenase in living cells to a highly water-soluble yellow formazan product, and the amount of the resultant formazan is proportional to the number of living cells), the number of living cells were quantified with a microplate reader, and GI50 of the compounds and the control compounds were calculated (the results shown in Table 2 and Table 3).

[2] = system: TEL-cKIT/D820G-BaF3 mouse tumor model; assay: Tumor-grafted mouse model established with TEL-cKIT/D820G-BaF3 cells; type: in vivo; conditions: oral, every day
Description: In this example Compound 1 and Compound 2 were respectively tested in TEL-cKIT/T670I-BaF3, TEL-cKIT/Y823D-BaF3, TEL-cKIT/D820G-BaF3 and GIST-T1-T670I mouse models.
Experimental protocols were as follows. • (1) Bal b/c female mice aged 4-6 weeks were purchased from Beijing Weitong Lihua Laboratory Animal Co., Ltd., and the mice were raised in an SPF laboratory. The drinking water and padding were sterilized by autoclaving. All operations on mice were conducted under aseptic conditions. • (2) About 5×10^6 TEL-cKIT/T670I-BaF3, TEL-cKIT/Y823D-BaF3, TEL-cKIT/D820G-BaF3 or GIST-T1-T670I cells were respectively injected subcutaneously onto the left back of all mice on Day 0. • (3) From Day 6, for the TEL-cKIT/T670I-BaF3 mouse model the corresponding mice were administrated orally every day with methylcellulose (HKI) as the vehicle (5 mice); with Compound 1 and Compound 2 at a dosage of 10 mg/kg, 20 mg/kg, 40 mg/kg, 100 mg/kg mouse weight (5 mice in each group); and with Sunitnib (purchased from MedChemExpress, China) at a dosage of 40 mg/kg mouse weight (5 mice). From day 6, for the TEL-cKIT/Y823D-BaF3 and TEL-cKIT/D820G-BaF3 mouse models the corresponding mice were administrated orally every day with methylcellulose (HKI) as the vehicle (5 mice); with Compound 1 and Compound 2 at a dosage of 40 mg/kg, 80 mg/kg mouse weight (5 mice in each group); and with Sunitnib (purchased from MedChemExpress, China) at a dosage of 40 mg/kg mouse weight (5 mice). From day 15, for the GIST-T1-T670I mouse model the corresponding mice were administrated orally every day with methylcellulose (HKI) as the vehicle (5 mice); with Compound 1 and Compound 2 at a dosage of 20 mg/kg, 40 mg/kg, 80 mg/kg mouse weight (5 mice in each group); and with Sunitnib at a dosage of 40 mg/kg mouse weight (5 mice). • (4) From day 6 (TEL-cKIT/T670I-BaF3, TEL-cKIT/Y823D-BaF3, TEL-cKIT/D820G-BaF3 mouse model) and From day 15 (GIST-T1-T670I mouse model), respectively, the length/width of the subcutaneous tumor were measured with a vernier caliper every day and the body weight of the mouse was recorded every day so as to determine the effects of Compound 1 and Compound 2 on the body weight and tumor size of the mice, respectively. • (5) The mice were sacrificed on Day 11 after administration for the TEL-cKIT/T670I-BaF3 mouse model, on Day 9 after administration for the TEL-cKIT/Y823D-BaF3 and TEL-cKIT/D820G-BaF3 mouse models, and on Day 28 after administration for the GIST-T1-T670I mouse model. The subcutaneous tumors were taken out, and the tumors were weighed and compared. • (6) The growth trend of subcutaneous tumors was calculated and the tumor size was calculated according to: length×width×width/2 mm^3.

Row | Structure (SMILES) | GI50 ([1]; 72 h) [nM] | inhibitory effects against tumor in mice ([2]; 40 mg/kg) | influence on mice weight [2] | GI50 ([1]; KIT wild-type, 72 hours, CCK-8) [nM] | tumor inhibition rate ([2]; 40 mg/kg) [%]
1 | COc1cc2nccc(Oc3ccc(NC(=O)Cc4ccc(C)c(C(F)(F)F)c4)cc3)c2cc1OC [Example 1, N-(4-((6,7-dimethoxyquinolin-4-yl)oxy)phenyl)-2-(4-methyl-3-(trifluoromethyl)phenyl)acetamide] | 17 | excellent inhibitory effects against tumor in mice | without significant influence on mice weight | – | –
2 | COc1cc2nccc(Oc3ccc(NC(=O)Cc4ccc(Cl)c(C(F)(F)F)c4)cc3)c2cc1OC [Example 2, N-(4-((6,7-dimethoxyquinolin-4-yl)oxy)phenyl)-2-(4-chloro-3-(trifluoromethyl)phenyl)-acetamide] | – | excellent inhibitory effects against tumor in mice | without significant influence on mice weight | 1 | ≥ 80
